As usually defined, the EC50 is the concentration at which the effect is half-maximal.

The record followed here is US20120302566A1, “INDANYLOXYDIHYDROBENZOFURANYLACETIC ACIDS” (BOEHRINGER INGELHEIM INTERNATIONAL GMBH, priority 2010, published 2012).

The target in the test is human GPR40 receptor (Homo sapiens, UniProt O14842). The test is described as follows: IP1 accumulation measurements using the IPOne assay system. Format: cell-based. The note with it: IP1 accumulation (IPOne HTRF), 1 hour stimulation; 1321N1 cells stably expressing human GPR40; read-out: EC50 values on GPR40 determined as described in (B). On the procedure: (B) IP1 accumulation measurements using the IPOne assay system—1321N1 cells stably expressing human GPR40 receptor (Euroscreen, Belgium) were seeded 24 h before the assay in black clear-bottom collagen-coated 384-well plates in culture medium containing 10% FCS, 1% Na-Pyruvate and 400 μg/mL G418. IP1 is assayed according to the Manufacturer's description (Cisbio Bioassays, France). In brief, the assay is started by substitution of the culture medium by stimulation buffer (Hepes 10 mM, CaCl2 1 mM, MgCl2 0.5 mM, KCl 4.2 mM, NaCl 146 mM and glucose 5.5 mM, pH 7.4) without LiCl. Cells are stimulated for 1 hour at 37°, 10% CO2 by addition of the compounds that were diluted in stimulation buffer containing LiCl yielding a final LiCl concentration of 50 mM. Assays are stopped by adding HTRF-conjugates (IP1-d2 and Anti-IP1 cryptate Tb) and lysis buffer, provided by the manufacturer. After an incubation time of 1 hour at room temperature plates are measured using an EnVision™, Perkin Elmer.
Sequence of human GPR40 receptor (O14842 whole entry): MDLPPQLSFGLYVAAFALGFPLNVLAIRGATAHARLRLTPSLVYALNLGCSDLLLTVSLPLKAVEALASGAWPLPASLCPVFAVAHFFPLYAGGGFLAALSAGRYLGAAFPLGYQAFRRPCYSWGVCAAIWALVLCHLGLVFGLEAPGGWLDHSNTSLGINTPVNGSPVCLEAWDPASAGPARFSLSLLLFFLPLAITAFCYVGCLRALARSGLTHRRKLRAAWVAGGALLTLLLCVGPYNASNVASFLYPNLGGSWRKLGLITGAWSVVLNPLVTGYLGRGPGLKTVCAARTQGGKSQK
In the case of `COC(c1cccc2c1CC[C@H]2Oc1ccc2c(c1)OC[C@H]2CC(=O)O)C(C)(C)C` (mixture of isomers) [Example 27, {(S)-6-[(R)-4-(1-Methoxy-2,2-dimethyl-propyl)-indan-1-yloxy]-2,3-dihydro-benzofuran-3-yl}-acetic acid], the EC50 came to 23 nM.
For `Cc1c(O[C@@H]2CCc3c2cccc3C(F)(F)F)ccc2c1OCC2CC(=O)O` (mixture of isomers) [Example 105, {7-Methyl-6-[(R)-4-trifluoromethyl-indan-1-yloxy]-2,3-dihydro-benzofuran-3-yl}-acetic acid] the value was 4250 nM; for `Cc1cc2c(cc1O[C@@H]1CCc3c1cccc3C(F)(F)F)OCC2CC(=O)O` (mixture of isomers) [Example 107, {5-Methyl-6-[(R)-4-trifluoromethyl-indan-1-yloxy]-2,3-dihydro-benzofuran-3-yl}-acetic acid], 6050 nM; for `CO[C@@H](c1cccc2c1CC[C@H]2Oc1ccc2c(c1)OC[C@H]2CC(=O)O)C(C)(C)C` (single isomer, unassigned) [Example 28, {(S)-6-[(R)-4-((R)*-1-Methoxy-2,2-dimethyl-propyl)-indan-1-yloxy]-2,3-dihydro-benzofuran-3-yl}-acetic acid], 25 nM.
For `CO[C@H](c1cccc2c1CC[C@H]2Oc1ccc2c(c1)OC[C@H]2CC(=O)O)C(C)(C)C` (single isomer, unassigned) [Example 29, {(S)-6-[(R)-4-((S)*-1-Methoxy-2,2-dimethyl-propyl)-indan-1-yloxy]-2,3-dihydro-benzofuran-3-yl}-acetic acid] the value was 14 nM; for `CO[C@H](c1cccc2c1CC[C@H]2Oc1ccc2c(c1)OC[C@H]2CC(=O)O)C(F)(F)F` (single isomer, unassigned) [Example 38, {(S)-6-[(R)-4-((R)*-2,2,2-Trifluoro-1-methoxy-ethyl)-indan-1-yloxy]-2,3-dihydro-benzofuran-3-yl}-acetic acid], 131 nM; for `CO[C@@H](c1cccc2c1CC[C@H]2Oc1ccc2c(c1)OC[C@H]2CC(=O)O)C(F)(F)F` (single isomer, unassigned) [Example 39, {(S)-6-[(R)-4-((S)*-2,2,2-Trifluoro-1-methoxy-ethyl)-indan-1-yloxy]-2,3-dihydro-benzofuran-3-yl}-acetic acid], 262 nM.
With `CC1OC(c2cccc3c2CC[C@H]3Oc2ccc3c(c2)OC[C@H]3CC(=O)O)C1(C)C` (single isomer, unassigned) [Example 41] the figure was 323 nM; with `CC1OC(c2cccc3c2CC[C@H]3Oc2ccc3c(c2)OC[C@H]3CC(=O)O)C1(C)C` (single isomer, unassigned) [Example 42], 131 nM; with `CC1(C)CCCO[C@@H]1c1cccc2c1CC[C@H]2Oc1ccc2c(c1)OC[C@H]2CC(=O)O` (single isomer, unassigned) [Example 66], 80 nM.
For the compound `CC1(C)CCCO[C@H]1c1cccc2c1CC[C@H]2Oc1ccc2c(c1)OC[C@H]2CC(=O)O` (single isomer, unassigned) [Example 67], the concentration giving a half-maximal response (EC50) was determined as 176 nM.
For `CC1(C)CCC[C@@H]1c1cccc2c1CC[C@H]2Oc1ccc2c(c1)OC[C@H]2CC(=O)O` (single isomer, unassigned) [Example 75] the value was 39 nM; for `CC1(C)CCC[C@H]1c1cccc2c1CC[C@H]2Oc1ccc2c(c1)OC[C@H]2CC(=O)O` (single isomer, unassigned) [Example 76], 95 nM; for `O=C(O)C[C@@H]1COc2cc(O[C@@H]3CCc4ccc(C(F)(F)F)cc43)ccc21` [Example 19, {(S)-6-[(R)-6-Trifluoromethyl-indan-1-yloxy]-2,3-dihydro-benzofuran-3-yl}-acetic acid], 5190 nM.
Consider `O=C(O)C[C@@H]1COc2cc(O[C@@H]3CCc4cc(Cl)ccc43)ccc21` [Example 21, {(S)-6-[(R)-5-Chloro-indan-1-yloxy]-2,3-dihydro-benzofuran-3-yl}-acetic acid], for which the EC50 was 54 nM.
For `O=C(O)C[C@@H]1COc2cc(O[C@@H]3CCc4cccc(C(F)(F)F)c43)ccc21` [Example 23, {(S)-6-[(R)-7-Trifluoromethyl-indan-1-yloxy]-2,3-dihydro-benzofuran-3-yl}-acetic acid] the value was 9120 nM; for `O=C(O)C[C@@H]1COc2cc(O[C@@H]3CCc4c(C(F)(F)F)ccc(F)c43)ccc21` [Example 24, {(S)-6-[(R)-7-Fluoro-4-trifluoromethyl-indan-1-yloxy]-2,3-dihydro-benzofuran-3-yl}-acetic acid], 35 nM; for `O=C(O)C[C@@H]1COc2cc(O[C@@H]3CCc4c(OC(F)(F)F)cccc43)ccc21` [Example 25, {(S)-6-[(R)-4-Trifluoromethoxy-indan-1-yloxy]-2,3-dihydro-benzofuran-3-yl}-acetic acid], 18 nM.
For `Cc1cc2c(c(C(F)(F)F)c1)CC[C@H]2Oc1ccc2c(c1)OC[C@H]2CC(=O)O` [Example 26, {(S)-6-[(R)-6-Methyl-4-trifluoromethyl-indan-1-yloxy]-2,3-dihydro-benzofuran-3-yl}-acetic acid] the value was 19 nM; for `Cc1ccc(C(F)(F)F)c2c1[C@H](Oc1ccc3c(c1)OC[C@H]3CC(=O)O)CC2` [Example 30, {(S)-6-[(R)-7-Methyl-4-trifluoromethyl-indan-1-yloxy]-2,3-dihydro-benzofuran-3-yl}-acetic acid], 302 nM; for `O=C(O)C[C@@H]1COc2cc(O[C@@H]3CCc4c(C5CC5)cccc43)ccc21` [Example 31, {(S)-6-[(R)-4-Cyclopropyl-indan-1-yloxy]-2,3-dihydro-benzofuran-3-yl}-acetic acid], 168 nM.
With `CC(C)c1cccc2c1CC[C@H]2Oc1ccc2c(c1)OC[C@H]2CC(=O)O` [Example 32, {(S)-6-[(R)-4-Isopropyl-indan-1-yloxy]-2,3-dihydro-benzofuran-3-yl}-acetic acid] the figure was 98 nM.
`Cc1cccc(C)c1-c1cccc2c1CC[C@H]2Oc1ccc2c(c1)OC[C@H]2CC(=O)O` [Example 33, {(S)-6-[(R)-4-(2,6-Dimethyl-phenyl)-indan-1-yloxy]-2,3-dihydro-benzofuran-3-yl}-acetic acid]: the concentration for a half-maximal effect (EC50) is 4 nM.
Turning to `CC(C)(C)Cc1cccc2c1CC[C@H]2Oc1ccc2c(c1)OC[C@H]2CC(=O)O` [Example 34, {(S)-6-[(R)-4-(2,2-Dimethyl-propyl)-indan-1-yloxy]-2,3-dihydro-benzofuran-3-yl}-acetic acid], the EC50 was 13 nM.
For `CC(C)c1ccccc1-c1cccc2c1CC[C@H]2Oc1ccc2c(c1)OC[C@H]2CC(=O)O` [Example 35, {(S)-6-[(R)-4-(2-Isopropyl-phenyl)-indan-1-yloxy]-2,3-dihydro-benzofuran-3-yl}-acetic acid] the value was 4 nM.
Regarding `Cc1ccc2c(c1C(F)(F)F)CC[C@H]2Oc1ccc2c(c1)OC[C@H]2CC(=O)O` [Example 36, {(S)-6-[(R)-5-Methyl-4-trifluoromethyl-indan-1-yloxy]-2,3-dihydro-benzofuran-3-yl}-acetic acid], the concentration giving a half-maximal response (EC50) was found to be 19 nM.
For the compound `O=C(O)C[C@@H]1COc2cc(O[C@@H]3CCc4c3ccc(F)c4F)ccc21` [Example 37, {(S)-6-[(R)-4,5-Difluoro-indan-1-yloxy]-2,3-dihydro-benzofuran-3-yl}-acetic acid], the EC50 amounted to 78 nM.
As for `CC1(C)CCC=C1c1cccc2c1CC[C@H]2Oc1ccc2c(c1)OC[C@H]2CC(=O)O` [Example 40, {(S)-6-[(R)-4-(5,5-Dimethyl-cyclopent-1-enyl)-indan-1-yloxy]-2,3-dihydro-benzofuran-3-yl}-acetic acid], the EC50 worked out at 13 nM.
In the case of `O=C(O)C[C@@H]1COc2cc(OC3CCc4ccccc43)ccc21` (stereo partly shown) [Example 43], the EC50 is 420 nM.
As to `O=C(O)C[C@@H]1COc2cc(O[C@@H]3CCc4c3ccc(F)c4Cl)ccc21` [Example 44, {(S)-6-[(R)-4-Chloro-5-fluoro-indan-1-yloxy]-2,3-dihydro-benzofuran-3-yl}-acetic acid], the EC50 stood at 25 nM.
Take `N#Cc1cccnc1-c1cccc2c1CC[C@H]2Oc1ccc2c(c1)OC[C@H]2CC(=O)O` [Example 46, {(S)-6-[(R)-4-(3-Cyano-pyridin-2-yl)-indan-1-yloxy]-2,3-dihydro-benzofuran-3-yl}-acetic acid]: the EC50 amounted to 982 nM.
With `O=C(O)C[C@@H]1COc2cc(O[C@@H]3CCc4c(C5=CCCC56CCOCC6)cccc43)ccc21` [Example 47, {(S)-6-[(R)-4-(8-Oxa-spiro[4.5]dec-1-en-1-yl)-indan-1-yloxy]-2,3-dihydro-benzofuran-3-yl}-acetic acid] the figure was 71 nM; with `CC1=C(c2cccc3c2CC[C@H]3Oc2ccc3c(c2)OC[C@H]3CC(=O)O)C(C)(C)CCC1` [Example 48, {(S)-6-[(R)-4-(2,6,6-Trimethyl-cyclohex-1-enyl)-indan-1-yloxy]-2,3-dihydro-benzofuran-3-yl}-acetic acid], 16 nM; with `Cc1nn(C)c(C)c1-c1cccc2c1CC[C@H]2Oc1ccc2c(c1)OC[C@H]2CC(=O)O` [Example 49, {(S)-6-[(R)-4-(1,3,5-Trimethyl-1H-pyrazol-4-yl)-indan-1-yloxy]-2,3-dihydro-benzofuran-3-yl}-acetic acid], 1910 nM.
